Structures are written as SMILES. The source made the active and inactive calls. The rule behind the calls is not given here.

One series has as its system HCT-116. The experiment in a line: Cytotoxicity against human HCT116 cells assessed as cell viability after 48 hrs by MTT assay. It counts as cell-based. The following applies: HCT-116, 48 h. On the technique in general: Formazan colour is commonly taken as a measure of viable cells.
For the compound `COc1cc2c(cc1OC)CN(CCc1ccc(NC(=O)c3ccccc3NS(=O)(=O)c3c(C)cc(C)cc3C)cc1)CC2`, the IC50 (commonly the point on the concentration scale where inhibition reaches its midpoint) was above 100 µM.
On the same count and under the same terms, the value for `COc1cc2c(cc1OC)CN(CCc1ccc(NC(=O)c3ccccc3NS(=O)(=O)c3ccc(F)cc3)cc1)CC2` was above 100 µM; that for `COc1cc2c(cc1OC)CN(CCc1ccc(NC(=O)c3cc(OC)c(OC)cc3NS(=O)(=O)c3ccc(C)cc3)cc1)CC2` was above 100 µM.
Consider `COc1cc2c(cc1OC)CN(CCc1ccc(NC(=O)c3ccccc3NS(=O)(=O)c3ccc(C(F)(F)F)cc3)cc1)CC2`, for which the IC50 was 25 µM.
On the same count and under the same terms, to `COc1cc2c(cc1OC)CN(CCc1ccc(NC(=O)c3cc(OC)c(OC)cc3NS(=O)(=O)c3ccc(C(F)(F)F)cc3)cc1)CC2` belongs 25 µM; to `COc1cc2c(cc1OC)CN(CCc1ccc(NC(=O)c3ccccc3NS(=O)(=O)c3ccc(C)cc3)cc1)CC2`, above 100 µM.
Take `CCCS(=O)(=O)Nc1ccccc1C(=O)Nc1ccc(CCN2CCc3cc(OC)c(OC)cc3C2)cc1`: the IC50 was above 100 µM.
For `COc1cc2c(cc1OC)CN(CCc1ccc(NC(=O)c3ccccc3NS(=O)(=O)c3ccccc3F)cc1)CC2`, the IC50 was above 100 µM.
`CCCCCCCCCCCC(=O)Nc1ccccc1C(=O)Nc1ccc(CCN2CCc3cc(OC)c(OC)cc3C2)cc1`: the IC50 was above 100 µM.

In the next series the test system is SW-620. The experiment in a line: Cytotoxicity against human SW620 cells assessed as cell viability after 48 hrs by MTT assay. It counts as cell-based. The following applies: SW-620, 48 h.
With `COc1cc2c(cc1OC)CN(CCc1ccc(NC(=O)c3ccccc3NS(=O)(=O)c3c(C)cc(C)cc3C)cc1)CC2`, the IC50 was above 100 µM.
As to `COc1cc2c(cc1OC)CN(CCc1ccc(NC(=O)c3ccccc3NS(=O)(=O)c3ccc(F)cc3)cc1)CC2`, the IC50 was above 100 µM.
`COc1cc2c(cc1OC)CN(CCc1ccc(NC(=O)c3cc(OC)c(OC)cc3NS(=O)(=O)c3ccc(C)cc3)cc1)CC2`: the IC50 was above 100 µM.
On the same count and under the same terms, the value for `COc1cc2c(cc1OC)CN(CCc1ccc(NC(=O)c3ccccc3NS(=O)(=O)c3ccc(C(F)(F)F)cc3)cc1)CC2` was above 100 µM.
On the same count and under the same terms, to `COc1cc2c(cc1OC)CN(CCc1ccc(NC(=O)c3cc(OC)c(OC)cc3NS(=O)(=O)c3ccc(C(F)(F)F)cc3)cc1)CC2` belongs above 100 µM; to `COc1cc2c(cc1OC)CN(CCc1ccc(NC(=O)c3ccccc3NS(=O)(=O)c3ccc(C)cc3)cc1)CC2`, above 100 µM.
Same read-out and setting: the value for `CCCS(=O)(=O)Nc1ccccc1C(=O)Nc1ccc(CCN2CCc3cc(OC)c(OC)cc3C2)cc1` was above 100 µM.
In the case of `COc1cc2c(cc1OC)CN(CCc1ccc(NC(=O)c3ccccc3NS(=O)(=O)c3ccccc3F)cc1)CC2`, the IC50 was above 100 µM.
The same measure, in the same setting: to `CCCCCCCCCCCC(=O)Nc1ccccc1C(=O)Nc1ccc(CCN2CCc3cc(OC)c(OC)cc3C2)cc1` belongs above 100 µM.

Test system in a further series: not listed separately
Kind of series: Cytotoxicity against human SW620/AD300 cells assessed as cell viability after 48 hrs by MTT assay. The following applies: SW-620, 48 h. It counts as cell-based.
In the case of `COc1cc2c(cc1OC)CN(CCc1ccc(NC(=O)c3ccccc3NS(=O)(=O)c3c(C)cc(C)cc3C)cc1)CC2`, the IC50 was above 100 µM.
Consider `COc1cc2c(cc1OC)CN(CCc1ccc(NC(=O)c3ccccc3NS(=O)(=O)c3ccc(F)cc3)cc1)CC2`, for which the concentration for half-maximal inhibition (IC50) is above 100 µM.
The same measure, in the same setting: to `COc1cc2c(cc1OC)CN(CCc1ccc(NC(=O)c3cc(OC)c(OC)cc3NS(=O)(=O)c3ccc(C)cc3)cc1)CC2` belongs above 100 µM.
Same read-out and setting: the value for `COc1cc2c(cc1OC)CN(CCc1ccc(NC(=O)c3ccccc3NS(=O)(=O)c3ccc(C(F)(F)F)cc3)cc1)CC2` was above 100 µM; that for `COc1cc2c(cc1OC)CN(CCc1ccc(NC(=O)c3cc(OC)c(OC)cc3NS(=O)(=O)c3ccc(C(F)(F)F)cc3)cc1)CC2` was above 100 µM.
As to `COc1cc2c(cc1OC)CN(CCc1ccc(NC(=O)c3ccccc3NS(=O)(=O)c3ccc(C)cc3)cc1)CC2`, the IC50 was above 100 µM.
Regarding `CCCS(=O)(=O)Nc1ccccc1C(=O)Nc1ccc(CCN2CCc3cc(OC)c(OC)cc3C2)cc1`, the concentration for half-maximal inhibition (IC50) was above 100 µM.
Same read-out and setting: to `COc1cc2c(cc1OC)CN(CCc1ccc(NC(=O)c3ccccc3NS(=O)(=O)c3ccccc3F)cc1)CC2` belongs above 100 µM.
Still for that read-out and setting: to `CCCCCCCCCCCC(=O)Nc1ccccc1C(=O)Nc1ccc(CCN2CCc3cc(OC)c(OC)cc3C2)cc1` belongs above 100 µM.

Test system in a further series: not listed separately
Kind of series: Cytotoxicity against human CCD-18Co cells assessed as cell viability after 48 hrs by MTT assay.
Conditions: not given
It counts as cell-based.
Take `COc1cc2c(cc1OC)CN(CCc1ccc(NC(=O)c3ccccc3NS(=O)(=O)c3c(C)cc(C)cc3C)cc1)CC2`: the half-maximal inhibitory concentration (IC50) is above 100 µM.
In the case of `COc1cc2c(cc1OC)CN(CCc1ccc(NC(=O)c3ccccc3NS(=O)(=O)c3ccc(F)cc3)cc1)CC2`, the IC50 is above 100 µM.
Still for that read-out and setting: to `COc1cc2c(cc1OC)CN(CCc1ccc(NC(=O)c3cc(OC)c(OC)cc3NS(=O)(=O)c3ccc(C)cc3)cc1)CC2` belongs above 100 µM; to `COc1cc2c(cc1OC)CN(CCc1ccc(NC(=O)c3ccccc3NS(=O)(=O)c3ccc(C(F)(F)F)cc3)cc1)CC2`, above 100 µM; to `COc1cc2c(cc1OC)CN(CCc1ccc(NC(=O)c3cc(OC)c(OC)cc3NS(=O)(=O)c3ccc(C(F)(F)F)cc3)cc1)CC2`, above 100 µM.
Turning to `COc1cc2c(cc1OC)CN(CCc1ccc(NC(=O)c3ccccc3NS(=O)(=O)c3ccc(C)cc3)cc1)CC2`, the IC50 was above 100 µM.
On the same count and under the same terms, to `CCCS(=O)(=O)Nc1ccccc1C(=O)Nc1ccc(CCN2CCc3cc(OC)c(OC)cc3C2)cc1` belongs above 100 µM; to `COc1cc2c(cc1OC)CN(CCc1ccc(NC(=O)c3ccccc3NS(=O)(=O)c3ccccc3F)cc1)CC2`, above 100 µM; to `CCCCCCCCCCCC(=O)Nc1ccccc1C(=O)Nc1ccc(CCN2CCc3cc(OC)c(OC)cc3C2)cc1`, above 100 µM.

Test system in another series: not listed separately
Kind of series: Cytotoxicity against human HFE cells assessed as cell viability after 72 hrs by MTT assay. It counts as cell-based.
Conditions: not given
With `COc1cc2c(cc1OC)CN(CCc1ccc(NC(=O)c3ccccc3NS(=O)(=O)c3c(C)cc(C)cc3C)cc1)CC2`, the IC50 is above 100 µM.
Regarding `COc1cc2c(cc1OC)CN(CCc1ccc(NC(=O)c3ccccc3NS(=O)(=O)c3ccc(F)cc3)cc1)CC2`, the IC50 is above 100 µM.
Still for that read-out and setting: to `COc1cc2c(cc1OC)CN(CCc1ccc(NC(=O)c3cc(OC)c(OC)cc3NS(=O)(=O)c3ccc(C)cc3)cc1)CC2` belongs above 100 µM; to `COc1cc2c(cc1OC)CN(CCc1ccc(NC(=O)c3ccccc3NS(=O)(=O)c3ccc(C(F)(F)F)cc3)cc1)CC2`, above 100 µM.
Consider `COc1cc2c(cc1OC)CN(CCc1ccc(NC(=O)c3cc(OC)c(OC)cc3NS(=O)(=O)c3ccc(C(F)(F)F)cc3)cc1)CC2`, for which the IC50 was above 100 µM.
The same measure, in the same setting: the value for `COc1cc2c(cc1OC)CN(CCc1ccc(NC(=O)c3ccccc3NS(=O)(=O)c3ccc(C)cc3)cc1)CC2` was above 100 µM.
On the same count and under the same terms, to `CCCS(=O)(=O)Nc1ccccc1C(=O)Nc1ccc(CCN2CCc3cc(OC)c(OC)cc3C2)cc1` belongs above 100 µM; to `COc1cc2c(cc1OC)CN(CCc1ccc(NC(=O)c3ccccc3NS(=O)(=O)c3ccccc3F)cc1)CC2`, above 100 µM; to `CCCCCCCCCCCC(=O)Nc1ccccc1C(=O)Nc1ccc(CCN2CCc3cc(OC)c(OC)cc3C2)cc1`, above 100 µM.

The next series concerns Hepatocyte. Kind of series: Cytotoxicity against rat hepatocytes assessed as cell viability after 72 hrs by MTT assay. It counts as cell-based. The conditions noted are these: Rattus norvegicus, Hepatocyte.
Consider `COc1cc2c(cc1OC)CN(CCc1ccc(NC(=O)c3ccccc3NS(=O)(=O)c3c(C)cc(C)cc3C)cc1)CC2`, for which the IC50 was 100 µM.
Still for that read-out and setting: to `COc1cc2c(cc1OC)CN(CCc1ccc(NC(=O)c3cc(OC)c(OC)cc3NS(=O)(=O)c3ccc(C)cc3)cc1)CC2` belongs 100 µM; to `COc1cc2c(cc1OC)CN(CCc1ccc(NC(=O)c3ccccc3NS(=O)(=O)c3ccc(C(F)(F)F)cc3)cc1)CC2`, 50 µM.
On the same count and under the same terms, the value for `COc1cc2c(cc1OC)CN(CCc1ccc(NC(=O)c3cc(OC)c(OC)cc3NS(=O)(=O)c3ccc(C(F)(F)F)cc3)cc1)CC2` was 50 µM; that for `COc1cc2c(cc1OC)CN(CCc1ccc(NC(=O)c3ccccc3NS(=O)(=O)c3ccccc3F)cc1)CC2` was 100 µM.

The target in the next series is Multidrug resistance-associated protein 1 (Homo sapiens, UniProt P33527). Kind of series: Inhibition of MRP1 (unknown origin)-mediated calcein-AM efflux expressed in HEK293/MRP1 cells at 0.5 uM after 1 hr by flow cytometry. It counts as cell-based. The following applies: hek293/mrp1, 1 h.
Chain of Multidrug resistance-associated protein 1 (P33527 whole entry): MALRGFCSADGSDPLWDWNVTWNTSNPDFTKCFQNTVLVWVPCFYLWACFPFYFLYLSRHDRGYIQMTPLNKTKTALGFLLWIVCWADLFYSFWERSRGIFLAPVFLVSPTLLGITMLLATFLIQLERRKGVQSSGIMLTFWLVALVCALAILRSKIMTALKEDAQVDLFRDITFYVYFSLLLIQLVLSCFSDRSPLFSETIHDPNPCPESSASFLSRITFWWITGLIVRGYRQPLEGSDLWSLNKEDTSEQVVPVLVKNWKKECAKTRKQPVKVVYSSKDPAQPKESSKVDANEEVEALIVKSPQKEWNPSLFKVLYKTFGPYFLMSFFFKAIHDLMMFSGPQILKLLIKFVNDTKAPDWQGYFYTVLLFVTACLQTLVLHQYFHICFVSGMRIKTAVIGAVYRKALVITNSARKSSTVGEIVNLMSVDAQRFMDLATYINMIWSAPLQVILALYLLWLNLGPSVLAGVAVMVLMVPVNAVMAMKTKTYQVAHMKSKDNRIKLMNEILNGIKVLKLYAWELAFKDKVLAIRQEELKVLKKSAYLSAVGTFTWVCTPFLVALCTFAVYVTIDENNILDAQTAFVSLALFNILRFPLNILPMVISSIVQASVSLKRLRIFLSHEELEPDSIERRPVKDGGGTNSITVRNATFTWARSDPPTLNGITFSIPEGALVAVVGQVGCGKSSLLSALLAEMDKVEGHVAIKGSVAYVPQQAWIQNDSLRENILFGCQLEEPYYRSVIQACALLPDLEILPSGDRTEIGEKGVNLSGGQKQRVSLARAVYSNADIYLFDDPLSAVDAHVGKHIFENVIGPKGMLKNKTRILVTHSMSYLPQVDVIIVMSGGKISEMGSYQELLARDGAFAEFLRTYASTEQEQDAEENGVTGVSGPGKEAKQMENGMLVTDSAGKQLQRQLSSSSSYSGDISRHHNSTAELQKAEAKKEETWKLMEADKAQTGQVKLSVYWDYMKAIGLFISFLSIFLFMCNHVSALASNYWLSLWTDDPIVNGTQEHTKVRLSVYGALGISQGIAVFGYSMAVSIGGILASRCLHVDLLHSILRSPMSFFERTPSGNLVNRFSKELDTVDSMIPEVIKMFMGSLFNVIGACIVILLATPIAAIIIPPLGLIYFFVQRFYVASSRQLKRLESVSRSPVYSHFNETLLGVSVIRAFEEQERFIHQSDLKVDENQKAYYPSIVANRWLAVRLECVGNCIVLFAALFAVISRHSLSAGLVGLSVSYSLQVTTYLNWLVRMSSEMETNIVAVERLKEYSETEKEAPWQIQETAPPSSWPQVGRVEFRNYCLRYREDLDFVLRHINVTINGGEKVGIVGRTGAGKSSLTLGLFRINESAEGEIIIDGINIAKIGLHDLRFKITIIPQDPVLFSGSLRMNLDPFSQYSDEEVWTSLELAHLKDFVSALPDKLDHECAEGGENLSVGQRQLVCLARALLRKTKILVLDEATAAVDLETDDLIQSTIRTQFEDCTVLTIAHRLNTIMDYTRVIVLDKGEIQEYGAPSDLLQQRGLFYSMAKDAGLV
For the compound `COc1cc2c(cc1OC)CN(CCc1ccc(NC(=O)c3ccccc3NS(=O)(=O)c3c(C)cc(C)cc3C)cc1)CC2`, the “inhibition (INH)” value is “Not Active”.
Same read-out and setting: to `COc1cc2c(cc1OC)CN(CCc1ccc(NC(=O)c3ccccc3NS(=O)(=O)c3ccc(F)cc3)cc1)CC2` belongs “Not Active”.
On the same count and under the same terms, the value for `COc1cc2c(cc1OC)CN(CCc1ccc(NC(=O)c3cc(OC)c(OC)cc3NS(=O)(=O)c3ccc(C)cc3)cc1)CC2` was “Not Active”.
As for `COc1cc2c(cc1OC)CN(CCc1ccc(NC(=O)c3ccccc3NS(=O)(=O)c3ccc(C(F)(F)F)cc3)cc1)CC2`, the “inhibition (INH)” value is listed as “Not Active”.
With `COc1cc2c(cc1OC)CN(CCc1ccc(NC(=O)c3cc(OC)c(OC)cc3NS(=O)(=O)c3ccc(C(F)(F)F)cc3)cc1)CC2`, the “inhibition (INH)” value was “Not Active”.
On the same count and under the same terms, the value for `COc1cc2c(cc1OC)CN(CCc1ccc(NC(=O)c3ccccc3NS(=O)(=O)c3ccc(C)cc3)cc1)CC2` was “Not Active”; that for `CCCS(=O)(=O)Nc1ccccc1C(=O)Nc1ccc(CCN2CCc3cc(OC)c(OC)cc3C2)cc1` was “Not Active”; that for `COc1cc2c(cc1OC)CN(CCc1ccc(NC(=O)c3ccccc3NS(=O)(=O)c3ccccc3F)cc1)CC2` was “Not Active”.
On the same count and under the same terms, to `CCCCCCCCCCCC(=O)Nc1ccccc1C(=O)Nc1ccc(CCN2CCc3cc(OC)c(OC)cc3C2)cc1` belongs “Not Active”.

A further series deals with K562. Kind of series: Induction of UIC2 antibody binding to p-glycoprotein in human K562 cells at 0.5 uM preincubated for 10 mins followed by antibody addition measured after 45 mins by flow cytometry relative to tariquidar. It counts as cell-based.
Conditions: not given
Consider `COc1cc2c(cc1OC)CN(CCc1ccc(NC(=O)c3ccccc3NS(=O)(=O)c3ccc(C)cc3)cc1)CC2`, for which the outcome was inactive.

The target of the next series is T1, Broad substrate specificity ATP-binding cassette transporter ABCG2 (Homo sapiens, UniProt Q9UNQ0).
T1 sequence (Q9UNQ0 whole entry): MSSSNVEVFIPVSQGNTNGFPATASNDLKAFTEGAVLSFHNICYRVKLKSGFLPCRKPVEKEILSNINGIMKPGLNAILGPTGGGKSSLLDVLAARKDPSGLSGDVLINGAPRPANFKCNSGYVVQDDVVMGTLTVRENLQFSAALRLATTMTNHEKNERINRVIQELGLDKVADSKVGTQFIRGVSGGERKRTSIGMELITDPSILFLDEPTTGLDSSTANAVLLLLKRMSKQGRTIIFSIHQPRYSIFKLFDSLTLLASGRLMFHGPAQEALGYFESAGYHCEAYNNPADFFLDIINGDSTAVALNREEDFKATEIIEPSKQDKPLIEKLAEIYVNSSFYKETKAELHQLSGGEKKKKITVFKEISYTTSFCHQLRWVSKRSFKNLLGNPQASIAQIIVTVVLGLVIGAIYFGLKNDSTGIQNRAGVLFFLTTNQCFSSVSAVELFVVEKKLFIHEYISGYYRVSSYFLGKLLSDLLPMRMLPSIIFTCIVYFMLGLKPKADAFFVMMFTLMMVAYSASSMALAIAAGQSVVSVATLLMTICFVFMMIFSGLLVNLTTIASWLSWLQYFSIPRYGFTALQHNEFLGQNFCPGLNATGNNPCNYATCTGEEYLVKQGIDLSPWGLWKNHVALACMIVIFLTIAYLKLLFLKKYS
The experiment in a line: Induction of 5D3 antibody binding to BCRP in human K562 cells at 0.5 uM preincubated for 10 mins followed by antibody addition measured after 45 mins by flow cytometry relative to tariquidar. It counts as cell-based. The conditions noted are these: k562, 0.75 h. Background: A flow cytometer gives signals particle by particle.
Regarding `COc1cc2c(cc1OC)CN(CCc1ccc(NC(=O)c3ccccc3NS(=O)(=O)c3ccc(C)cc3)cc1)CC2`, the Activity entry is recorded as “Not Active”.
